Results on 1 substance are retold here after US20240002441A1, “PEPTIDES AND USES THEREOF IN MODULATION OF AMYLOID-BETA PROTEIN DEGRADING PROTEASES” (priority 2020, published 2024).

One data set has as its system SARS-CoV-2. It counts as cell-based. As to conditions: post-treatment, Vero cells; for IL-6 expression compared to PBS: normalised to GAPDH.
Another data set deals with HEK293 cells. Briefly: Peptide stability study in HEK293 cells, LCMS (Example 4). The format is in vitro ADME. Conditions: peptide 9 μM, Opti-MEM, 60 min. As to the method: SEQ ID NO:2 was prepared as a C-terminal amidated analogue of SEQ ID NO:1. The stability of SEQ ID NO:1 and SEQ ID NO:2 was assessed in HEK293 and EA.hy926 cells grown in culture and their break down was monitored by LCMS over 60 min using the following procedure.
HEK293 (passage 24) or Ea.hy926 (passage 37) were seeded into tissue-culture-grade 96-well plates at a density of 20,000 cells/well. After 24 hr, cells were washed with PBS and replaced with Opti-MEM reduced serum media containing SEQ ID NO:1 or SEQ ID NO:2 (9 μM). Aliquots of equal volume were taken at T=0 and 60 min. SEQ ID NO:2 was added to control wells having media (no cells) only. Samples were immediately acidified in 0.1% TFA, snap frozen in dry ice and stored in −80° C. until analysed by LCMS.
Samples were analyzed by LC-MS/MS on a Shimadzu Nexera uHPLC (Japan) coupled to a Triple Tof 5600 mass spectrometer (ABSCIEX, Canada) equipped with a duo electrospray ion source. One μL of each extract was injected onto a 2.1 mm×100 mm Zorbax C18 1.8 um column (Agilent) at 200 μL/min. […] SEQ ID NO:1 and SEQ ID NO:2 were quantified using the […] doubly charged molecular ion from m/z 510.270 to 510.325. The data was acquired using Analyst TF 1.6 and quantification was carried out using MultiQuant 2.1.1 software (ABSCIEX, Canada).

Data set [1] deals with T1, NEP (Homo sapiens, UniProt P08473).
T1 construct: purchased R & D systems 1182-ZNC-010
T1 sequence (P08473 whole entry): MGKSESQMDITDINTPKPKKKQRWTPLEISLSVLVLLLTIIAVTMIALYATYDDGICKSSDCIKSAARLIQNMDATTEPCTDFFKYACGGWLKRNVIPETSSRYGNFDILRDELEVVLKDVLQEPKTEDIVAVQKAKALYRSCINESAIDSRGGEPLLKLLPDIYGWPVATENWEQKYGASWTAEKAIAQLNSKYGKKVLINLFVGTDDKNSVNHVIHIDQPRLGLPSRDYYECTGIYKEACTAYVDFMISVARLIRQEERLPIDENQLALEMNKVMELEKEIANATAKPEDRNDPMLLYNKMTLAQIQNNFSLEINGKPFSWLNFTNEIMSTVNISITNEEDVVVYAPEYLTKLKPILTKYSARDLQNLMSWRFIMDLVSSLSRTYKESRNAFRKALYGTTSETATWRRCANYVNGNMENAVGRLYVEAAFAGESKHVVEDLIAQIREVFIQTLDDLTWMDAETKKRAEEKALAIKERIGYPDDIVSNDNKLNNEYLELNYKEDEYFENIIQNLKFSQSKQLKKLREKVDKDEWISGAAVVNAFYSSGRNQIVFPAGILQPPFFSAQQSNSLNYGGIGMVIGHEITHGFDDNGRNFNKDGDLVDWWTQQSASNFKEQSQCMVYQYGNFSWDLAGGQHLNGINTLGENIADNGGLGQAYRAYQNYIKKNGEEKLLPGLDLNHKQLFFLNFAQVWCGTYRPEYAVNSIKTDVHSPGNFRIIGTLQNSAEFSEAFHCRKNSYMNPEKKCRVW
Briefly: Cleavage of synthetic Aβ42 by NEP, LCMS (Example 7). The format is biochemical. As to conditions: NEP 0.15 ng/μL, peptide 9 μM, Aβ42 0.05 μg/μL. As to the method: Synthetic Aβ40 (0.10 μg/μL) was added to a reaction mixture containing NEP (0.05 ng/μL) pre-incubated with SEQ ID NO:2 or scrambled control (9 μM) for 1 h at 37° C. Synthetic Aβ42 (0.05 μg/μL) was added to a reaction mixture containing NEP (0.15 ng/μL) preincubated with either scrambled control or SEQ ID NO:2 (9 μM) for 1 h at 37° C. Samples containing enzyme alone had only NEP buffer (Table 2). The cleavage reaction was allowed to continue in a thermomixer at 37° C. Aliquots of equal volume were taken over 24 h. Aliquots were immediately acidified with 0.1% trifluoroacetic acid (TFA) to terminate enzyme activity and snap frozen in dry ice. Samples were stored at −80° C. until analysed by LCMS.
Samples were analysed by LC-MS/MS using a quadrupole TOF mass spectrometer (MicroTOFq, Bruker Daltonics, Bremen, Germany) coupled online with a 1200 series nano-HPLC (Agilent technologies, Santa Clara, CA, USA). Samples were injected onto a zorbax 300SB reversed phase trap column with 95% solvent A (0.1% formic acid) at a flow rate of 10 μL/minute. The peptides were eluted over a 10-min gradient to 70% solvent B (80% acetonitrile, 0.1% formic acid) and separated on a 15-cm, 75-μmID zorbax 300SB nanocolumn. The eluent was nebulised and ionised using the Bruker nano-ESI source with a capillary voltage of 4500 V, dry gas at 180° C., flow rate of 5 L/minute and nebuliser gas pressure at 300 mbar. […]

Data set [2] has as its target T1, NEP. Briefly: NEP enzyme kinetics study with QFS (Example 5). The format is biochemical. Conditions: NEP QFS 0-120 μM; pre-incubation 1 h at 37° C. As to the method: Plate reader-based enzyme assays were performed using a quenched fluorescent substrate (QFS) in a 96-well format using a SpectraMAX M4 Microplate reader (Molecular Devices). The increase in fluorescence following addition of QFS (40 μM) was taken as evidence of enzyme activity. Fluorescence was monitored over 2 h at 37° C. using κEx=320 nm and λEm=405 nm. Assays were conducted in black 96-well plates. Specific enzyme activity was expressed as a rate of substrate cleavage calculated using a standard curve of 7-methoxy-coumarin-4-acetic acid.
In all plate reader-based enzyme assays using QFS, the reaction rate (μmol of substrate cleaved/min) was calculated using linear regression analysis (GraphPad Prism software version 8.01). The reaction rates calculated were used to generate the enzyme kinetic parameters Vmax and Km through non-linear regression analysis (GraphPad Prism software, version 8.01; Michaelis-Menten equation). Where indicated, enzyme activity in the presence of peptide was expressed as a % of the enzyme alone. Data were expressed as mean±SEM and statistical significance was determined using t-tests or one-way ANOVAs followed by Tukey's post-hoc test. P<0.05 was considered as statistically significant. In all assays conducted using 96-well plates, the reaction mixtures in each well were considered an independent experiment. […]

Where two headings read alike, the source gives them in different places.

For “H-SLFELGKMIL-NH2 [SEQ ID NO:2, H2N-SLFELGKMIL-NH2]”, in the data set with SARS-CoV-2 (200 ng/μL), the “viral RNA compared to PBS” value was “significantly reduced” and the “IL-6 expression compared to PBS” value is reported as “significantly reduced”. In the data set on SARS-CoV-2 (400 ng/μL), the “viral RNA compared to PBS” value is on record as “significantly reduced”, the “viral titre compared to PBS” value is reported as “significantly reduced” and the “IL-6 expression compared to PBS” value is listed as “significantly reduced”. Further, the “amount remaining in the medium of HEK293 cells” value in the data set on HEK293 cells is 54%±4%. Moreover, the “amount of cleavage products Aβ1-12, Aβ1-16 and Aβ1-21 formed from Aβ42 over 24 h, compared with scrambled control” value at NEP [1] is on record as “significantly higher”. The “vmax of rhNEP in the presence of peptide” value at NEP [2] is on record as 0.035±0.002 μmol substrate cleaved/min.
